In ChEMBL document CHEMBL1133582, “Water-soluble phosphate prodrugs of 1-propargyl-8-styrylxanthine derivatives, A(2A)-selective adenosine receptor antagonists” (J Med Chem, 2000):

How the values were obtained:
Adenosine receptor A3 = target: T1, Adenosine receptor A3 (Homo sapiens, UniProt P0DMS8); assay: Binding affinity against human adenosine A3 receptor in CHO cell membranes using [3H]NECA
T1 sequence (P0DMS8 whole entry): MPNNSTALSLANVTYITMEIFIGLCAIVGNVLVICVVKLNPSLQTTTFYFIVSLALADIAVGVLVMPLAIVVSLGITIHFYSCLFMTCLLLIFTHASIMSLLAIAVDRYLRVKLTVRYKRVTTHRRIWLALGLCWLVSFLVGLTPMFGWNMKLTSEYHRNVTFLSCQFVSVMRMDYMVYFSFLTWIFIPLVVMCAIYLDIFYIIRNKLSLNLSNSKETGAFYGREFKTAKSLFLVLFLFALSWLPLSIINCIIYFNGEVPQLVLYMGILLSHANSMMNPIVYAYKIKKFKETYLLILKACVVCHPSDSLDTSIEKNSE

Adenosine receptor A2b = target: T2, Adenosine receptor A2b (Homo sapiens, UniProt P29275); assay: Inhibition of NECA-induced stimulation of adenylate cyclase at human adenosine A2B receptor; format: functional
T2 sequence (P29275 whole entry): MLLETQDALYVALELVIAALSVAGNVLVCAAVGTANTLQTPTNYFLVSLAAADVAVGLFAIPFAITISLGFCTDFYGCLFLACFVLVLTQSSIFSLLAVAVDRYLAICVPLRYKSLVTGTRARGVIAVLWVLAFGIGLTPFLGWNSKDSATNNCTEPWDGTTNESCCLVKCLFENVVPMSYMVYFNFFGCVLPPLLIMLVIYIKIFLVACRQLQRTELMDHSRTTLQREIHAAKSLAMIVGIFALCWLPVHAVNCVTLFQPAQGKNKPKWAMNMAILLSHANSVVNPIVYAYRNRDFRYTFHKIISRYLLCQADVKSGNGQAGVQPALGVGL

Adenosine receptor A1 [1] = target: T3, Adenosine receptor A1 (Rattus norvegicus, UniProt P25099); assay: Binding affinity against adenosine A1 receptor of rat without and after pre-incubation with alkaline phosphatase
T3 sequence (P25099 whole entry): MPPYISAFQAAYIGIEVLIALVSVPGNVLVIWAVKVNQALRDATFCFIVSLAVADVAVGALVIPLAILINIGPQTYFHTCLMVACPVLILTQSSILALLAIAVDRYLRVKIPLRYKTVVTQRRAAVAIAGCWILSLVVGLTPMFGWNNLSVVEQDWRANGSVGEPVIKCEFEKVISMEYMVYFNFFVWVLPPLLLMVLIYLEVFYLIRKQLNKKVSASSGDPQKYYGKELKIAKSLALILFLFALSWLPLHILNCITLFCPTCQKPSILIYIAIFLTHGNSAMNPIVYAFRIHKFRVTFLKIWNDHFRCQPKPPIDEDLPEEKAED

Adenosine receptor A2a [2] = target: Adenosine receptor A2a (Rattus norvegicus, UniProt P30543); assay: Binding affinity against adenosine A2A receptor of rat brain striatal membranes using [3H]CGS-21680
Adenosine receptor A1 [3] = target: T3, Adenosine receptor A1; assay: Binding affinity against adenosine A1 receptor of rat brain cortical membranes using [3H]CHA
Adenosine receptor A2a [4] = target: T4, Adenosine receptor A2a (Homo sapiens, UniProt P29274)
Description: Binding affinity against human post-mortem brain adenosine A2A receptor using nuclei caudati and [3H]-CGS-21,680

Adenosine receptor A1 [5] = target: T5, Adenosine receptor A1 (Homo sapiens, UniProt P30542); assay: Binding affinity against human adenosine A1 receptor using [3H]-CCPA (95% confidence)
T5 sequence (P30542 whole entry): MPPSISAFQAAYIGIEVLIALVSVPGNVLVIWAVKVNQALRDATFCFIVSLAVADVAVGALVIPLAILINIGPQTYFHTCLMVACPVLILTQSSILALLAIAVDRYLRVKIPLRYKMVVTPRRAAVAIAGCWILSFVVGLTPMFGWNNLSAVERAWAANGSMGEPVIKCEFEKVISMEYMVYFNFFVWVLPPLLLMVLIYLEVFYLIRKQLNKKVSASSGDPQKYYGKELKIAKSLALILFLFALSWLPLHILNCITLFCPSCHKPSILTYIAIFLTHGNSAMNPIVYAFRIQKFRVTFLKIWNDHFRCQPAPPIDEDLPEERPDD

Adenosine receptor A2a [6] = target: T4, Adenosine receptor A2a; remark: listed apart in the source
Description: Binding affinity against human adenosine A2A receptor using [3H]CGS-21680 (95% confidence)

Adenosine receptor A2a (Rattus norvegicus, UniProt P30543), sequence (P30543 whole entry): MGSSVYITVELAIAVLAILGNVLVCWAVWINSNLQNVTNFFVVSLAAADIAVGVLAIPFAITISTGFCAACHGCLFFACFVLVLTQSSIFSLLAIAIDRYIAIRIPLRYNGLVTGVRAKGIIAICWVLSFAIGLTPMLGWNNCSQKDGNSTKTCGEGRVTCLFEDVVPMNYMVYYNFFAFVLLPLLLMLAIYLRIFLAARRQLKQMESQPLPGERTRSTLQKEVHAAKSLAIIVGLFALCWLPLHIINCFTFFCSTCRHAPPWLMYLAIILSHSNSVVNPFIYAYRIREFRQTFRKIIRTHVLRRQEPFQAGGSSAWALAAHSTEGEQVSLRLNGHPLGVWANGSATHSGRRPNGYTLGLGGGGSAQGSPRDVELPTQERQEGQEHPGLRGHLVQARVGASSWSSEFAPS
T4 sequence (P29274 whole entry): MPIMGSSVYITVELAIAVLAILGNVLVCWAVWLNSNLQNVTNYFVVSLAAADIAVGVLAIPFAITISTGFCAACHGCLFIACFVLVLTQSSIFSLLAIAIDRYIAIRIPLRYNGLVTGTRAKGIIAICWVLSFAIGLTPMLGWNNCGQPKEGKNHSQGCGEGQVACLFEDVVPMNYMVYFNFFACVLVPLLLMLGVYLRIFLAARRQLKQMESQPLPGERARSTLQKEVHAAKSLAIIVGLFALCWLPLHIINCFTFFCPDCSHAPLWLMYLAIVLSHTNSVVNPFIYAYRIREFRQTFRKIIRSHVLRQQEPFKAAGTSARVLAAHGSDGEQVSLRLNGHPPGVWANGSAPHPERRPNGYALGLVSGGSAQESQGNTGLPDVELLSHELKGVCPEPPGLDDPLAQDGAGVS

| Ki (Adenosine receptor A2a [2]) [nM] | Ki (Adenosine receptor A1 [3]) [nM] | SMILES | also measured |
| --- | --- | --- | --- |
| – | – | C#CCn1c(=O)c2c(nc(/C=C/c3cccc(Br)c3)n2C)n(C)c1=O | Ki (Adenosine receptor A3): > 10 µM; Ki (Adenosine receptor A2b): > 10 µM |
| – | – | C#CCn1c(=O)c2c(nc(/C=C/c3cccc(OC)c3)n2C)n(CCCOP(=O)(O)O)c1=O | Ki (Adenosine receptor A1 [1]): 1120 nM |
| 13 | 625 | C#CCn1c(=O)c2c(nc(/C=C/c3cccc(Br)c3)n2C)n(CCCO)c1=O | – |
| 21 | 940 | C#CCn1c(=O)c2c(nc(/C=C/c3cccc(O)c3)n2C)n(C)c1=O | – |
| 25 | 1280 | C#CCn1c(=O)c2c(nc(/C=C/c3cccc(Br)c3)n2C)n(CCO)c1=O | – |
| 42 | 1070 | C#CCn1c(=O)c2c(nc(/C=C/c3cccc(N)c3)n2C)n(C)c1=O | – |
| 39 | 1040 | C#CCn1c(=O)c2c(nc(/C=C/c3cccc(OC)c3)n2C)n(CCO)c1=O | – |
| 12 | 1280 | C#CCn1c(=O)c2c(nc(/C=C/c3cccc(OC)c3)n2C)n(C)c1=O | – |
| 8 | 900 | C#CCn1c(=O)c2c(nc(/C=C/c3cccc(OC)c3)n2C)n(CCCO)c1=O | Ki (Adenosine receptor A2a [4]): 15 nM; Ki (Adenosine receptor A3): > 10 µM; Ki (Adenosine receptor A2b): > 10 µM; Ki (Adenosine receptor A1 [5]): 2500 nM; Ki (Adenosine receptor A2a [6]): 5 nM |
